Test results from US20230263825A1, “ANTI-CANCER ACTIVITY OF PERBORATE SALTS” (priority 2020, published 2023).

Assay: Toxicology in rats, oral, histopathology
Type: in vivo
Conditions: rat, in vivo, po
Excerpt: After 32 days, the rats were sacrificed and their organs were examined under a microscope.

O.O.O.O.[Na+].[O-]B1OO1 [sodium perborate tetrahydrate]
0%: LUNG Lymphocytic infiltration, % (1 mg/kg) | LUNG Notable or abnormal, % (1 mg/kg) | LUNG Pulmonary edema, % (1 mg/kg) | PANCREAS Notable or abnormal, % (1 mg/kg) | SPLEEN Notable or abnormal, % (1 mg/kg) | STOMACH Notable or abnormal, % (1 mg/kg) | HEART Notable or abnormal, % (2 mg/kg) | INTESTINE, Large Notable or abnormal, % (2 mg/kg) | INTESTINE, Small Notable or abnormal, % (2 mg/kg) | KIDNEY Edema, % (2 mg/kg) | KIDNEY Notable or abnormal, % (2 mg/kg) | LIVER Fattening, % (2 mg/kg) | LIVER Infiltration, % (2 mg/kg) | LIVER Notable or abnormal, % (2 mg/kg) | LUNG Lymphocytic infiltration, % (2 mg/kg) | LUNG Notable or abnormal, % (2 mg/kg) | LUNG Pulmonary edema, % (2 mg/kg) | PANCREAS Notable or abnormal, % (2 mg/kg) | SPLEEN Notable or abnormal, % (2 mg/kg) | STOMACH Notable or abnormal, % (2 mg/kg) | HEART Notable or abnormal, % (4 mg/kg) | INTESTINE, Large Notable or abnormal, % (4 mg/kg) | INTESTINE, Small Notable or abnormal, % (4 mg/kg) | KIDNEY Edema, % (4 mg/kg)
100%: LIVER Within normal limits, % (1 mg/kg) | LUNG Within normal limits, % (1 mg/kg) | PANCREAS Within normal limits, % (1 mg/kg) | SPLEEN Within normal limits, % (1 mg/kg) | STOMACH Within normal limits, % (1 mg/kg) | HEART Within normal limits, % (2 mg/kg) | INTESTINE, Large Within normal limits, % (2 mg/kg) | INTESTINE, Small Within normal limits, % (2 mg/kg) | KIDNEY Within normal limits, % (2 mg/kg) | LIVER Within normal limits, % (2 mg/kg) | LUNG Within normal limits, % (2 mg/kg) | PANCREAS Within normal limits, % (2 mg/kg) | SPLEEN Within normal limits, % (2 mg/kg) | STOMACH Within normal limits, % (2 mg/kg) | HEART Within normal limits, % (4 mg/kg) | INTESTINE, Large Within normal limits, % (4 mg/kg) | INTESTINE, Small Within normal limits, % (4 mg/kg)
0/10: LUNG Lymphocytic infiltration, No Exam (1 mg/kg) | LUNG Notable or abnormal, No Exam (1 mg/kg) | LUNG Pulmonary edema, No Exam (1 mg/kg) | PANCREAS Notable or abnormal, No Exam (1 mg/kg) | SPLEEN Notable or abnormal, No Exam (1 mg/kg) | STOMACH Notable or abnormal, No Exam (1 mg/kg) | HEART Notable or abnormal, No Exam (2 mg/kg) | INTESTINE, Large Notable or abnormal, No Exam (2 mg/kg) | INTESTINE, Small Notable or abnormal, No Exam (2 mg/kg) | KIDNEY Edema, No Exam (2 mg/kg) | KIDNEY Notable or abnormal, No Exam (2 mg/kg) | LIVER Fattening, No Exam (2 mg/kg) | LIVER Infiltration, No Exam (2 mg/kg) | LIVER Notable or abnormal, No Exam (2 mg/kg) | LUNG Lymphocytic infiltration, No Exam (2 mg/kg) | LUNG Notable or abnormal, No Exam (2 mg/kg) | LUNG Pulmonary edema, No Exam (2 mg/kg) | PANCREAS Notable or abnormal, No Exam (2 mg/kg) | SPLEEN Notable or abnormal, No Exam (2 mg/kg) | STOMACH Notable or abnormal, No Exam (2 mg/kg) | HEART Notable or abnormal, No Exam (4 mg/kg) | INTESTINE, Large Notable or abnormal, No Exam (4 mg/kg) | INTESTINE, Small Notable or abnormal, No Exam (4 mg/kg)
10/10: LIVER Within normal limits, No Exam (1 mg/kg) | LUNG Within normal limits, No Exam (1 mg/kg) | PANCREAS Within normal limits, No Exam (1 mg/kg) | SPLEEN Within normal limits, No Exam (1 mg/kg) | STOMACH Within normal limits, No Exam (1 mg/kg) | HEART Within normal limits, No Exam (2 mg/kg) | INTESTINE, Large Within normal limits, No Exam (2 mg/kg) | INTESTINE, Small Within normal limits, No Exam (2 mg/kg) | KIDNEY Within normal limits, No Exam (2 mg/kg) | LIVER Within normal limits, No Exam (2 mg/kg) | LUNG Within normal limits, No Exam (2 mg/kg) | PANCREAS Within normal limits, No Exam (2 mg/kg) | SPLEEN Within normal limits, No Exam (2 mg/kg) | STOMACH Within normal limits, No Exam (2 mg/kg) | HEART Within normal limits, No Exam (4 mg/kg) | INTESTINE, Large Within normal limits, No Exam (4 mg/kg) | INTESTINE, Small Within normal limits, No Exam (4 mg/kg)
